We go through nine compounds from patent US20230257393A1, “MACROMOLECULE-SUPPORTED THIENOAZEPINE COMPOUNDS, AND USES THEREOF” (BOLT BIOTHERAPEUTICS, INC., priority 2020, published 2023).

The structures appear in SMILES notation. Where two headings read alike, the source gives them in different places.

Test [1] deals with T1, human TLR7 (Homo sapiens, UniProt Q9NYK1).
T1 construct: host or cells: HEK293 reporter cells
T1 sequence (Q9NYK1 27-1049): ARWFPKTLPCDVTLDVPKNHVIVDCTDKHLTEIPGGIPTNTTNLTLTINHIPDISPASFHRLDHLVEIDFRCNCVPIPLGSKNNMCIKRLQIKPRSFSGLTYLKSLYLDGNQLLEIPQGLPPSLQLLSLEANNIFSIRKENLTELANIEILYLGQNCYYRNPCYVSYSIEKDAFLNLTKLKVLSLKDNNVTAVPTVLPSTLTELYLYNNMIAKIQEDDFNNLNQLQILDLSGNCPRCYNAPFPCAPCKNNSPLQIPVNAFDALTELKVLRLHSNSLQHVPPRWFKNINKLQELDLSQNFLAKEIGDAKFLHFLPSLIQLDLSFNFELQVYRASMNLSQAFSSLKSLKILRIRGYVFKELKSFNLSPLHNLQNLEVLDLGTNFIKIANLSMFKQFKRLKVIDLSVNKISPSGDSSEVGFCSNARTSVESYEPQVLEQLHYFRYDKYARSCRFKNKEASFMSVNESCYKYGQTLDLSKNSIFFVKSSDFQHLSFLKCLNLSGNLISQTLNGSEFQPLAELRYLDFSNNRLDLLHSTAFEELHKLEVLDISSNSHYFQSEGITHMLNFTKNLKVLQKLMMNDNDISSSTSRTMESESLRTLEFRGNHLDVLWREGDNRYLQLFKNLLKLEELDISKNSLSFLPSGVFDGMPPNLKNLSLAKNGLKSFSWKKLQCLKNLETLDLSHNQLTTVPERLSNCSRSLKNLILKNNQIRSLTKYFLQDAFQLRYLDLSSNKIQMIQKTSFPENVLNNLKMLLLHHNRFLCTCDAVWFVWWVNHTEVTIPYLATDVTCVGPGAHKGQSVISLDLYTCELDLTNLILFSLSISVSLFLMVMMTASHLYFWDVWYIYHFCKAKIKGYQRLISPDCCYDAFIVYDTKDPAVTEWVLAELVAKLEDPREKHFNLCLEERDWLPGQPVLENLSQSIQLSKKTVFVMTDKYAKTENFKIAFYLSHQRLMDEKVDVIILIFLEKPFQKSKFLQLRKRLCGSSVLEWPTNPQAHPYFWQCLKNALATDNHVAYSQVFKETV
Kind of test: HEK Reporter Assay, HEK293 NFKB reporter cells expressing human TLR7. It is filed as cell-based. The settings on record: read-out: HEK293 hTLR7 EC50. How it is done: (§1) Each compound was synthesized, purified, and characterized by mass spectrometry and shown to have the mass indicated. Additional experimental procedures are found in the Examples. Activity against HEK293 NFKB reporter cells expressing human TLR7 or human TLR8 was measured according to Example 202.
(§2) HEK293 reporter cells expressing human TLR7 or human TLR8 were purchased from Invivogen and vendor protocols were followed for cellular propagation and experimentation. Briefly, cells were grown to 80-85% confluence at 5% CO2 in DMEM supplemented with 10% FBS, Zeocin, and Blasticidin. Cells were then seeded in 96-well flat plates at 4×10^4 cells/well with substrate containing HEK detection medium and immunostimulatory molecules. Activity was measured using a plate reader at 620-655 nm wavelength.
For orientation: Reporter assays use an easily measured gene product as a stand-in for the process of interest.

Test [2] concerns the target T2, human TLR8 (Homo sapiens, UniProt Q9NR97).
T2 construct: host or cells: HEK293 reporter cells
T2 sequence (Q9NR97 27-1041): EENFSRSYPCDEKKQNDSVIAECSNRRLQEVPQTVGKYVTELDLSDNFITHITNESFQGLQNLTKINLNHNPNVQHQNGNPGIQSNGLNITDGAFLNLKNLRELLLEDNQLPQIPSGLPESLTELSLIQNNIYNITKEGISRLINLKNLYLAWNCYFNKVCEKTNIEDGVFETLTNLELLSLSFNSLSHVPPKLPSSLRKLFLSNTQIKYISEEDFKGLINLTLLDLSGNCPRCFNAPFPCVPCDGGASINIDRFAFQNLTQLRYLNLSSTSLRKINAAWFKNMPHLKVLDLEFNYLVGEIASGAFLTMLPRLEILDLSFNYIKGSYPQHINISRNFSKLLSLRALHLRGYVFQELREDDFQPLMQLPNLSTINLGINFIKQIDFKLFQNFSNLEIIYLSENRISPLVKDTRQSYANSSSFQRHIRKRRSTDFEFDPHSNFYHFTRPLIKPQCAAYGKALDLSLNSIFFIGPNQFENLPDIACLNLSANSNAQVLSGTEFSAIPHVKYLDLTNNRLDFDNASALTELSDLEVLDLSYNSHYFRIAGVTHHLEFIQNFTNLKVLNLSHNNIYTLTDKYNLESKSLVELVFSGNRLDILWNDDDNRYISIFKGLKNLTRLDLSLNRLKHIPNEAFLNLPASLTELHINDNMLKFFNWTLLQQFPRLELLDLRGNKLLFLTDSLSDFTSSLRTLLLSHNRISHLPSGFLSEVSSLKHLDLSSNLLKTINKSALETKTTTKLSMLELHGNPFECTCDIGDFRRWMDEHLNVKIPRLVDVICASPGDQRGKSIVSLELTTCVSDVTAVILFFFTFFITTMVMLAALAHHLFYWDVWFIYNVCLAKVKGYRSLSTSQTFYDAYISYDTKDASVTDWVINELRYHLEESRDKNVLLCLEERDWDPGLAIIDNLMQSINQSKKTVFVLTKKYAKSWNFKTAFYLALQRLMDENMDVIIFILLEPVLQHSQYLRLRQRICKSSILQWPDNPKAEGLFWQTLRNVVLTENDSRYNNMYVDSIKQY
Kind of test: HEK Reporter Assay, HEK293 NFKB reporter cells expressing human TLR8. The note with it: read-out: HEK293 hTLR8 EC50. It is filed as cell-based. On the procedure: as §1, §2

Broadly, the EC50 is the concentration needed to bring the measured effect to its halfway point. Take `CCCN(OCC)C(=O)C1=Cc2sc(CN3CCC(c4ccc(C(=O)OC)cc4)CC3)cc2N=C(N)C1` [TAZ-229]: the EC50 in test [1] (Table 1c) and in test [2] (Table 1c) was at least 9 µM throughout.
Regarding `CCCN(CCC)C(=O)C1=Cc2sc(C)cc2N=C(N)C1` [TAZ-7, 5-amino-2-methyl-N,N-dipropyl-6H-thieno[3,2-b]azepine-7-carboxamide], the half-maximal effective concentration (EC50) in test [1] (Table 1a) and in test [2] (Table 1a) was above 9 µM each time.
Consider `CCCN(OCC)C(=O)C1=Cc2sc(CN3C[C@H]4C[C@@H]3CN4)cc2N=C(N)C1` [TAZ-235], for which the EC50 in test [1] (Table 1c) was 4.57 µM; in test [2] (Table 1c), 3.05 µM.
Take `CCCN(CCC)C(=O)C1=Cc2sc(Br)cc2N=C(N)C1` [TAZ-1, 5-amino-2-bromo-N,N-dipropyl-6H-thieno[3,2-b]azepine-7-carboxamide]: the half-maximal effective concentration (EC50) in test [1] (Table 1a) and in test [2] (Table 1a) was above 9 µM each time.
Regarding `CCCN(CCC)C(=O)C1=Cc2sc(CC(=O)NCCN)cc2N=C(N)C1` [TAZ-120], the EC50 in test [1] (Table 1c) and in test [2] (Table 1c) was at least 9 µM in each case.
Take `CCCN(CCCNC(=O)OC(C)(C)C)C(=O)C1=Cc2sc(Br)cc2N=C(N)C1` [TAZ-9, tert-butyl N-[3-[(5-amino-2-bromo-6H-thieno[3,2-b]azepine-7-carbonyl)-propyl-amino]propyl]carbamate]: the EC50 in test [1] (Table 1a) and in test [2] (Table 1a) was above 9 µM each time.
In the case of `CCCN(CCC)C(=O)C1=Cc2sc(Cc3ccccc3)cc2N=C(N)C1` [TAZ-26, 5-amino-2-benzyl-N,N-dipropyl-6H-thieno[3,2-b] azepine-7-carboxamide], the EC50 in test [1] (Table 1a) and in test [2] (Table 1a) was above 9 µM throughout.
`CCCN(CCC)C(=O)C1=Cc2sc(-c3cnn(S(=O)(=O)N4CC(CO)C4)c3)cc2N=C(N)C1` [TAZ-12, 5-amino-2-[1-[3-(hydroxymethyl)azetidin-1-yl]sulfonylpyrazol-4-yl]-N,N-dipropyl-6H-thieno[3,2-b]azepine-7-carboxamide]: the 50% effective concentration (EC50) in test [1] (Table 1a) and in test [2] (Table 1a) was above 9 µM throughout.
Turning to `CCCN(CCCc1ccc(CN2CCNCC2)cc1)C(=O)C1=Cc2sccc2N=C(N)C1` [TAZ-37], the EC50 was above 9 µM in test [1] (Table 1b) and 2.94 µM in test [2] (Table 1b).
